Source: patent publication US11369607B2, “Compositions, systems, and methods for generating inner ear hair cells for treatment of hearing loss” (Massachusetts Institute of Technology, priority 2014, dated 2022)
“Also recorded” adds a separate entry of the source. One block for each molecule: values may come before it.

Assays:
[1] = tested on: Lgr5+ supporting cells isolated from the cochlea; assay: Expansion of Lgr5-GFP inner ear progenitor cells in Matrigel based 3D culture; format: cell-based, mouse; conditions: for Lgr5-GFP expression, effect of addition / cell proliferation, effect of addition: neonatal Lgr5 inner ear progenitor cells; for GFP+ cell number / GFP+ percentage: named factor removed from EFICVP6, 10 days
Experimental: Cell culture: Heterozygous Lgr5-EGFP-IRES-CreERT2 mice were obtained from Jackson Labs, and neonatal P2-P5 mice were used for cell isolation. Organ of Corti was isolated from Lgr5-GFP mice and further dissociated into single cells using trypsin. Cells were then cultured as previously described (Yin et al, 2014). Briefly, cells were entrapped in Matrigel and plated at the center of wells in a 24-well plate. Following polymerization of Matrigel, 500 μl of culture media (Advanced DMEM/F12 with N2 and B27) was added, containing growth factors including EGF (50 ng/ml) (epidermal growth factor), bFGF (20 ng/ml) (fibroblast growth factor), and IGF1 (50 ng/ml) (insulin-like growth factor 1), and small molecules including CHIR99021 (5 μM), valproic acid (1 mM), 2-phospho-L-ascorbic acid (280 μM), and 616452 (2 μM). Y-27632 (10 μM) was added for the first 2 days. In some experiments, bFGF was used at 50 ng/ml.
For single cell isolation, the organs of Corti were then treated with Cell Recovery Solution (Corning) for 1 h to separate cochlear epithelium from the underlying mesenchyme. Epithelia were then collected and treated with Trypsin (Life Technologies) for 15-20 minutes at 37° C. Single cells obtained by mechanical trituration were filtered by cell strainer (40 μm) and washed with cell culture media. For FACS sorting of Lgr5-high and Lgr5-Low cells, FACS ARIA (BD) was used and Lgr5-GFP was used as indicator of Lgr5 level. Sorted single cells were cultured in Matrigel in inner ear cell culture media with supplement growth factors and small molecules. Y-27632 was added in the first 2 days.
FACS analysis: Cell culture media was removed and Trypsin was added. After incubation at 37° C. for 10-20 min, colonies were dissociated into single cells. Live-cell number were counted using a hemocytometer and trypan blue staining. The cells were then stained with propidium iodide (PI) and analyzed with flow cytometry. The number of GFP-positive cells was calculated by multiplying the total number of cells by the percentage of GFP-positive cells.

[2] = tested on: Lgr5 inner ear cells from adult mice; assay: Expansion of Lgr5-GFP inner ear cells from adult mice; format: cell-based; conditions: adult mouse
Experimental: FIGS. 13A-C depict In vitro culture of Lgr5-GFP inner ear progenitor cells from adult mouse. FIG. 13A: Isolated cochlear from 9-week old mice was cultured in the presence of EFICVP6 for 9 days. Showing out-growth of Lgr5-GFP cells. FIG. 13B: The same culture at day 13. Showing expansion of Lgr5-GFP cells. FIG. 13C: Passage 2 of the same culture at day 5 after passage (Day 19). All scale bars: 100 μm. Specifically, cochlear was isolated from 9-week old adult mice, directly mixed with Matrigel and plated at the center of well of a 24-well plate. Cell culture medium in the presence of EGF, bFGF, IGF-1, CHIR99021, VPA, L-Ascorbic acid 2-phosphate (pVc) and a TGF-β RI Kinase Inhibitor II (616452) was added following gelation of Matrigel. The tissue was cultured for 2 weeks until Lgr5-GFP cells expanded and form out-growth. After 2 weeks (Day 14) the tissue was then dissociated using trypsin, re-plated and further cultured.
For adult tissue, the stria vascularis was removed but the epithelium was not removed from the underlying mesenchyme due to the limited amount of intact cochlea that could be extracted. For adult cells, additional small molecule TTNPB (2 μM, Tocris) was added and the complete media contain EGF, bFGF, IGF-1, CHIR99021, VPA, pVc, 616452 and TTNPB.

[3] = Thermal gelation of poloxamer-407 formulations (visual tube inversion method); format: physicochemical
Experimental: Poloxamer-407 hydrogels were prepared using the “cold-method”. Briefly, a weighed amount of poloxamer-407 was added to 40 ml cold ultra pure water or cold PBS (pH 7.4), and stirred overnight at 4° C. on a magnetic stir plate to effect complete solubilization. Multiple concentrations of poloxamer-407 solution ranging from 18% (w/w) to 25% (w/w) were prepared. Hydrophilic drugs, including valproic acid (VPA) and phosphorylated ascorbic acid (PAC) were added to the 5 ml poloxamer-407 solution and dissolved at 4° C. on a magnetic stir plate. Weight ratio of poloxamer-407 to the drug was varied to understand the effects of drugs on the gelation properties of poloxamer-407, and to determine the optimal formulation that gels at 37° C. with maximum possible loading of the hydrophilic drugs. The gelation temperatures of the formulations were determined by the “visual tube inversion method”. Briefly, glass vials containing poloxamer 407 solutions, with or without the hydrophilic drugs were placed in a water bath.
To encapsulate hydrophobic drugs, including CHIR 99021 (CHIR), Repsox and TTNPB, appropriate volumes from their stock solutions in DMSO were added into the poloxamer-407 solutions containing the hydrophilic drugs, and mixed by pipetting at 4° C. […] Gelation temperature of the formulation was determined by the “visual tube inversion method”, as described before.

[4] = tested on: expanded Lgr5-positive cells; assay: Differentiation of expanded Lgr5-positive cells to hair cells; format: cell-based, mouse; conditions: in differentiation media
Experimental: Differentiation protocol: For differentiation of expanded Lgr5-positive cells, following 10 days of culture in the cell expansion condition (EFICVP6), the cell colonies were transferred to fresh Matrigel and further cultured in differentiation media. Differentiation media contains Notch pathway inhibitor (e.g. DAPT, D, 5 μM, or LY411575, LY, 5 μM), with or without Gsk3β inhibitor (e.g. CHIR99021). Media were changed every other day. Following another 6-10 days of incubation with differentiation media, the colonies were harvested for qPCR analysis or fixed with 4% PFA and immunostained with hair cell markers Myo7a and Prestin.
RNA extraction and quantitative real-time PCR (qPCR): RNA was isolated from cultured cells (RNeasy Mini Kit; Qiagen) according to the manufacturer's protocol. Quantitative real-time PCR was performed with QuantiTect Probe PCR kit (Qiagen) using commercially available primers and TaqMan probes (Myo7a and Hprt Life Technologies).
Immunocytochemistry staining: Colonies were fixed at room temperature in 4% paraformaldehyde/PBS for 15-20 min and then washed twice with PBS containing 0.1% BSA. Cells were then permeabilized with 0.25% Triton X-100 in PBS in 4° C. for 30 minutes. Following 2 washes with PBS containing 0.1% BSA, the cells were incubated with blocking solution (Power Block, Biogenex) for 1 h. Diluted primary antibodies (in Power Block solution) was applied for 4 h at room temperature or overnight at 4° C. Primary antibodies used were Myosin VIIA (1:500, Rabbit polyclonal from Proteus Biosciences) and Prestin (1:400, Goat polyclonal from Santa Cruz). After 3 washes for 5 minutes each, secondary antibodies (Alexafluor 594 and 647-conjugated; Invitrogen) were added at 1:500 dilution and incubated at room temperature for 30 minutes. Nuclei were visualized with 4,6-diamidino-2-phenylindole (DAPI, Vector Laboratories). Staining was visualized with inverted fluorescence microscope (EVOS; Advanced Microscopy Group).

CBA/CaJ mice = assay: Hearing recovery in noise-deafened mice (auditory brainstem responses); format: in vivo, mouse; conditions: 5, 10, 20, 28.3 and 40 kHz, p<0.05
Experimental: A 17% (w/w) stock solution of poloxamer 407 gel (Sigma-Aldrich) was prepared by slowly adding it to cold 1× phosphate-buffered saline at pH 7.4. This solution is liquid when refrigerated or at room temperature but solidifies at body temperature. The gel was tinted blue with Evans blue dye (50 ppm) for visualization during administration.
A formulation was prepared as described in Example 4 with 527 mM VPA and 2.975 mM CHIR in 17% Poloxamer 407 with 5% DMSO (“VPA/CHIR”). For comparison, a Notch inhibitor, LY411575, was prepared at 4 mM in 17% Poloxamer 407 with 5% DMSO (“LY411575”). Additionally, a vehicle-only control of 17% Poloxamer 407 with 5% DMSO was prepared (“Control”).
CBA/CaJ mice were deafened in a noise chamber by exposure to an 8-16 kHz octave band noise band for 2 hours at 120 dB SPL. 24 hours after noise exposure, their hearing was assessed by measuring auditory brainstem responses (ABRs). The minimum sound pressure level (SPL) required for visual detection of ABR Wave I was determined at 5, 10, 20, 28.3, and 40 kHz. Following ABR measurements, a trans-tympanic injection of a Poloxamer gel drug mixture (described above as “VPA/CHIR”, “LY411575”, or “Control”) was delivered to fill the middle ear cavity. After 30 days, ABR was assessed and the improvement in hearing threshold from 24 hrs to 30 days after noise exposure was determined.

[5] = In vitro drug release from poloxamer-407 hydrogel (dialysis bag method); format: physicochemical; conditions: for initial burst release / cumulative release: pH 7.4, 37° C.; for cumulative release: in 48 h
Experimental: To understand the release kinetics of encapsulated drugs from poloxamer-407 hydrogels, in vitro release studies were performed using dialysis bag method at pH 7.4 and 37° C. temperature conditions. Briefly, sealed dialysis bag (3.5-5 kDa cutoff) containing 30 μL gel suspended in 1 ml PBS was placed in 10 mL of the release medium (PBS). The release medium was stirred at 100 rpm to prevent the formation of a stagnant layer at the membrane and outer solution interface. 1 mL aliquots were taken from the medium at predetermined intervals for the analysis of drugs using HPLC, and replaced with an equal volume of fresh medium.

[6] = tested on: Atoh1-GFP inner ear epithelial cells; assay: Spontaneous hair cell differentiation of cultured Atoh1-nGFP inner ear epithelial cells; format: cell-based, mouse
[7] = factor removed from the culture medium
[8] = named factor removed, versus EFICVP6

Compound: C/C(=C\c1ccc(C(=O)O)cc1)c1ccc2c(c1)C(C)(C)CCC2(C)C [TTNPB]
Lgr5-GFP expression, effect of addition [1]: didn't increase GFP expression | cell proliferation, effect of addition [1]: increased cell proliferation; also recorded: slightly increased cell proliferation | GFP+ colony formation [2]: formation of GFP^+ colonies | proliferation of adult Lgr5 cells [2]: increase cell proliferation; also recorded: significantly promoted the proliferation of cultured cells; also recorded: promote the proliferation of adult Lgr5 inner ear progenitor cells

concentration that inhibited gelation of poloxamer-407 solution [3]: > 14000 µg/mL
Compound: O=C1O[C@H]([C@@H](O)CO)C(O)=C1OP(=O)(O)O [pVc, 2-phospho-L-ascorbic acid]
importance of the factor for Lgr5-GFP expression [1, 7]: greater impact on GFP maintenance; also recorded: greatly reduced Lgr5 expression; also recorded: important to promote GFP maintenance | GFP+ cell number [1]: 1.1×10^5 cells | GFP+ percentage [1]: 25% | decrease of GFP+ cell number [1, 8]: 2 fold | decrease of GFP+ percentage [1, 8]: 2 fold | Lgr5-GFP expression, effect of addition [1]: promoted GFP expression from Lgr5-GFP inner ear progenitor cells; also recorded: promotes GFP expression | cell proliferation, effect of addition [1]: increases cell proliferation of Lgr5 inner ear progenitor cells | effect on differentiation of hair cells [4]: inhibit the differentiation of hair cells

Compound: C[C@H](NC(=O)[C@@H](O)c1cc(F)cc(F)c1)C(=O)N[C@@H]1C(=O)N(C)c2ccccc2-c2ccccc21 [LY411575, N-2((2S)-2-(3,5-difluorophenyl)-2-hydroxyethanoyl)-N 1-((7S)-5-methyl-6-oxo-6,7-dihydro-5H-dibenzo[b,d]azepin-7-yI)-1-alaninamide]
hearing recovery (CBA/CaJ mice): significant recovery at 10 kHz, 28.3 KHz, and 40 kHz

initial burst release ([5]; in 2 h): 10% | cumulative release [5]: 33%
Compound: Cc1c[nH]c(-c2cnc(NCCNc3ccc(C#N)cn3)nc2-c2ccc(Cl)cc2Cl)n1 [CHIR, 6-[[2-[[4-(2,4-dichlorophenyl)-5-(5-methyl-1H-imidazol-2-yl)-2-pyrimidinyl]amino]ethyl]amino]-3-pyridinecarbonitrile]
importance of the factor for Lgr5-GFP expression [1, 7]: critical for cell proliferation and GFP expression; also recorded: greatly impacted GFP expression; also recorded: greatest effect on Lgr5 expression; also recorded: important to promote cell proliferation and GFP expression | importance of the factor for cell proliferation [1, 7]: critical for cell proliferation and GFP expression; also recorded: greatly impacted cell proliferation; also recorded: greatest effect on proliferation; also recorded: important to promote cell proliferation and GFP expression | GFP+ cell number [1]: ~65 cells | GFP+ percentage [1]: 1.3% | decrease of GFP+ cell number [1, 8]: ~4000 fold | decrease of GFP+ percentage [1, 8]: ~50 fold | decrease of total cell number [1, 8]: ~100 fold | effect on differentiation of hair cells [4]: increases the differentiation efficiency of a Notch inhibitor | differentiation to Atoh-1+ cells [6]: can promote differentiation to Atoh-1+ cells

concentration that inhibited gelation of poloxamer-407 solution [3]: greater than 88 mg/ml | initial burst release ([5]; in 0.5 h): 17% | cumulative release [5]: 98%
Compound: CCCC(CCC)C(=O)O [VPA, 2-propylpentanoic acid]
importance of the factor for Lgr5-GFP expression [1, 7]: important for GFP expression; also recorded: greater impact on GFP maintenance; also recorded: greatly reduced Lgr5 expression; also recorded: important to promote GFP maintenance | GFP+ percentage [1]: 28% | decrease of GFP+ cell number [1, 8]: 2 fold | decrease of GFP+ percentage [1, 8]: 2 fold | release kinetics [5]: significantly faster as compared to that of CHIR | effect on differentiation of hair cells [4]: inhibit the differentiation of hair cells | spontaneous differentiation of hair cells ([6]; Atoh1-nGFP mouse line, 7 days): inhibited the differentiation of inner ear progenitor cells towards Atoh1 positive hair cells; also recorded: suppressed spontaneous differentiation of hair cells; also recorded: functions through suppressing differentiation
